Assay results published in PMC9854187, “A novel Mcl-1 inhibitor synergizes with venetoclax to induce apoptosis in cancer cells” (Molecular Medicine, 2023).

Target: T1, Mcl-1 (Homo sapiens, UniProt Q07820)
T1 construct: gene MCL1; recombinant GST-Mcl-1
Assay: fluorescence polarization with recombinant GST-Mcl-1; supported by GST pull-down showing disruption of Mcl-1/Bak
Format: binding

T1 sequence (Q07820 whole entry): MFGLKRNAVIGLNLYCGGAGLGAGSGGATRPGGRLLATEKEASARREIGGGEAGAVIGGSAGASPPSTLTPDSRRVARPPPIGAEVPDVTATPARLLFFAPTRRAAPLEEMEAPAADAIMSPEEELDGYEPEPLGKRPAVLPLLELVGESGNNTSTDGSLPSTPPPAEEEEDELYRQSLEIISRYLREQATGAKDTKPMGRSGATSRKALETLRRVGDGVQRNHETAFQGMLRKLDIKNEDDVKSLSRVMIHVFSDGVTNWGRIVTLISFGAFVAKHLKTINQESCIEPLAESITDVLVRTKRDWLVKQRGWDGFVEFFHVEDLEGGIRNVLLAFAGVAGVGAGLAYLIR

Cc1cc(Cl)ccc1NC(=O)C(=O)C(C(=O)c1ccc2ccccc2c1)C1OC(=O)c2ccccc21 (stereo not shown) [MI-238]
Ki: 450 ± 50 nM
